# From ChEMBL document CHEMBL4680251, “Discovery of a 2-pyridinyl urea-containing compound YD57 as a potent inhibitor of apoptosis signal-regulating kinase 1 (ASK1)” (Eur J Med Chem, 2020)
# Key:
# HepG2 [1] = test: Induction of cell cycle arrest in human HepG2 cells assessed as accumulation at S phase at 0.5 uM incubated for 24 hrs by propidium iodide staining based flow cytometry (reference value: 33.27%); type: functional
# [2] = target: T1, Mitogen-activated protein kinase kinase kinase 5 (Homo sapiens, UniProt Q99683); test: Inhibition of ASK1 (unknown origin)
# T1 sequence (Q99683 whole entry): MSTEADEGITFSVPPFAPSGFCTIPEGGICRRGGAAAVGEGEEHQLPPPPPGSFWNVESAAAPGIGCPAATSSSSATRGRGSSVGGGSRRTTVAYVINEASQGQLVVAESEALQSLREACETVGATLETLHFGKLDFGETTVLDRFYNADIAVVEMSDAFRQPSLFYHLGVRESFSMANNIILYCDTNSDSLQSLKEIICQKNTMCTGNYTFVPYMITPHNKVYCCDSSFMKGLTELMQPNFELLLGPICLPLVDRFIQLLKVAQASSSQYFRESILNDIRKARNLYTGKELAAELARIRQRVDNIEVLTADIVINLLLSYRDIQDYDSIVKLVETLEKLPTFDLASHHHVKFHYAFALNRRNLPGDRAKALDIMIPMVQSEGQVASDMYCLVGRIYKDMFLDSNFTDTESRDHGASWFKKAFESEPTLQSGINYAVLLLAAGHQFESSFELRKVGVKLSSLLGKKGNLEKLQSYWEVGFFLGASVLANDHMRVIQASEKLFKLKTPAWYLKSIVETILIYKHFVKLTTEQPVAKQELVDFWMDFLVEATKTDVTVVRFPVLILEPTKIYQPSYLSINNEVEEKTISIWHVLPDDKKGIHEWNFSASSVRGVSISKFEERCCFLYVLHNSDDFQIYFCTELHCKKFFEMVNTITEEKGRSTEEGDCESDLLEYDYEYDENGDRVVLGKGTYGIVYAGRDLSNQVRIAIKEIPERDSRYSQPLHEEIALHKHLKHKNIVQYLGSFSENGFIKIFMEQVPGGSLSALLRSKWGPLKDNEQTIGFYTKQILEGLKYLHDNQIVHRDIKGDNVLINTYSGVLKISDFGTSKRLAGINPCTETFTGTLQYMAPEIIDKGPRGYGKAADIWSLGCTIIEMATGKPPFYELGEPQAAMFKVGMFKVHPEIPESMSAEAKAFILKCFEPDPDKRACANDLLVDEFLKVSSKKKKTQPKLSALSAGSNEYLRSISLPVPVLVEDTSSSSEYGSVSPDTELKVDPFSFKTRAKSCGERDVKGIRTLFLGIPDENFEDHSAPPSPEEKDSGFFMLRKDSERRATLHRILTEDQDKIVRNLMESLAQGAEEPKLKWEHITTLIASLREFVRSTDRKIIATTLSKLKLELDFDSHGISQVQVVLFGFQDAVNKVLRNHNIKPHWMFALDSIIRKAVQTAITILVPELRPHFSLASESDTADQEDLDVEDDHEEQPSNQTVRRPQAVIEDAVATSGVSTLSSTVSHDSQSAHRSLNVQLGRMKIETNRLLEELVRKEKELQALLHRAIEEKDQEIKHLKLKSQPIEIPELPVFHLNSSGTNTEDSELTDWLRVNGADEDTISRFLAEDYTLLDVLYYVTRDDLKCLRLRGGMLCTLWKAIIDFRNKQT
# HepG2 [3] = test: Induction of cell cycle arrest in human HepG2 cells assessed as accumulation at G0/G1 phase at 0.5 uM incubated for 24 hrs by propidium iodide staining based flow cytometry (reference value: 38.34%); type: functional
# [4] = Inhibition of human full length recombinant CDK9/cyclin T1 using KTFCGTPEYLAPE as substrate incubated for 40 mins in presence of [gamma-33ATP] by radiometric scintillation counting analysis
# HepG2 [5] = test: Induction of cell cycle arrest in human HepG2 cells assessed as accumulation at G0/G1 phase at 1 uM incubated for 24 hrs by propidium iodide staining based flow cytometry (reference value: 38.34%); type: functional
# HepG2 [6] = test: Induction of cell cycle arrest in human HepG2 cells assessed as accumulation at S phase at 4 uM incubated for 24 hrs by propidium iodide staining based flow cytometry (reference value: 33.27%); type: functional
# HepG2 [7] = test: Induction of cell cycle arrest in human HepG2 cells assessed as accumulation at S phase at 2 uM incubated for 24 hrs by propidium iodide staining based flow cytometry (reference value: 33.27%); type: functional
# [8] = target: Glycogen synthase kinase-3 beta (Homo sapiens, UniProt P49841); test: Inhibition of human recombinant GSK3 beta H350L mutant using YRRAAVPPSPSLSR as substrate incubated for 40 mins in presence of [gamma-33ATP] by radiometric scintillation counting analysis
# Glycogen synthase kinase-3 beta, sequence (P49841 whole entry): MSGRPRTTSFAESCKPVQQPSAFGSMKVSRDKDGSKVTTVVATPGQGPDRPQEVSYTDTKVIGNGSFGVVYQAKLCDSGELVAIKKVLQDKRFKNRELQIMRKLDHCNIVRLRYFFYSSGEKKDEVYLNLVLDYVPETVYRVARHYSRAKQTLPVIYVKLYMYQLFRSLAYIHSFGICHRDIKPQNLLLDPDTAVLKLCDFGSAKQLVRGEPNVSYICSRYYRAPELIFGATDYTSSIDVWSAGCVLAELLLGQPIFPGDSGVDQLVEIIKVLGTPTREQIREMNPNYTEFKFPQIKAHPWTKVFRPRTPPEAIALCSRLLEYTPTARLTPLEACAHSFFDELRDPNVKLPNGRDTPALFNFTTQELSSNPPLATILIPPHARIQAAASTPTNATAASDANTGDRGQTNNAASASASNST
# [9] = target: T2, Mitogen-activated protein kinase kinase kinase 7 (Homo sapiens, UniProt O43318); test: Inhibition of TAK1 (unknown origin)
# T2 sequence (O43318 whole entry): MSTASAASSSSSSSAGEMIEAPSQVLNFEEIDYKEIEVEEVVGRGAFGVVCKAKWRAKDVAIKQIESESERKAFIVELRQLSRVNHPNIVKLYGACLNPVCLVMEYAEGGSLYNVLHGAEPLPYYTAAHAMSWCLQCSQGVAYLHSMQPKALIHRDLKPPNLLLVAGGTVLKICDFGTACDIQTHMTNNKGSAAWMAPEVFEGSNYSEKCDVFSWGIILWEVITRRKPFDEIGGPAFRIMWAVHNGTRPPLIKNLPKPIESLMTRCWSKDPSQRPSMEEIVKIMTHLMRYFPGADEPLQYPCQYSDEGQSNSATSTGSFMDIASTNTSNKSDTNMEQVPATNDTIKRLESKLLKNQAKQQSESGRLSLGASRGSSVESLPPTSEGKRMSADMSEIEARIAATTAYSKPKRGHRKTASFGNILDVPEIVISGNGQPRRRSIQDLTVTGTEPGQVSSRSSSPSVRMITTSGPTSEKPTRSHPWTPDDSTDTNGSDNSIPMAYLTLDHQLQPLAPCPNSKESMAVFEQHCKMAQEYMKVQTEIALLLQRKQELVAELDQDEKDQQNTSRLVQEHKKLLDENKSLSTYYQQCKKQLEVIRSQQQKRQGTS
# HepG2 [10] = test: Induction of cell cycle arrest in human HepG2 cells assessed as accumulation at G2/M phase at 1 uM incubated for 24 hrs by propidium iodide staining based flow cytometry (reference value: 33.49%); type: functional
# HepG2 [11] = test: Induction of cell cycle arrest in human HepG2 cells assessed as accumulation at G0/G1 phase at 16 uM incubated for 24 hrs by propidium iodide staining based flow cytometry (reference value: 38.34%); type: functional
# HepG2 [12] = test: Induction of cell cycle arrest in human HepG2 cells assessed as accumulation at S phase at 1 uM incubated for 24 hrs by propidium iodide staining based flow cytometry (reference value: 33.27%); type: functional
compound,measurement,setting,value
C[C@H](CO)n1cnnc1-c1cccc(NC(=O)Nc2cc3ccccn3n2)n1,Activity,HepG2 [1],31.94%
same,IC50,[2],33.8 nM
same,Activity,HepG2 [3],46.22%
same,IC50,[4],94.2 nM
same,Activity,HepG2 [5],60.13%
same,Activity,HepG2 [6],7.9%
same,Activity,HepG2 [7],7.15%
same,IC50,[8],283 nM
same,IC50,[9],4980 nM
same,Activity,HepG2 [10],30.59%
same,Activity,HepG2 [11],69.77%
same,Activity,HepG2 [12],11.7%
